In patent US11065251B2, “PAK1 inhibitors and uses thereof” (Albert Einstein College of Medicine, priority 2016, dated 2021):
≈ marks a conversion by molar mass, not a printed value. Read-outs that look alike come from different tables or passages of the source.

Tests used:
PAK1 = PAK1 (Homo sapiens, UniProt Q13153); assay: PAK1 IC50 determination, Z'-LYTE kinase assay; format: biochemical; settings: [ATP]=10×Km; [PAK1]=1 ng; read-out: IC50 against PAK1
Protocol: Protocol for determining IC50 Values for test compounds at [ATP]=10×Km; [PAK1]=1 ng
Add 2 ml 5× Kinase Buffer to 8 ml water to prepare […] of Kinase Buffer A.
• Thaw the concentrated stock of test compound at room temperature. • 2.1. Add 10 μl of 100% DMSO to row A, columns 2-11 (wells A2-A11) in a 96-well assay plate (non-binding surface). To well A1, add 15 μl of the concentrated stock of test compound. This will be the highest concentration of test compound in a 10-point titration curve. Use a concentration that is 100× the final desired 1× concentration per 10 μl kinase reaction. For example, if the final 1× concentration of 100 μM is desired for the highest concentration of test compound in the 10 point titration curve, add 15 μl of 10 mM test compound to well A1. • 2.2. Titrate the 100× test compound three-fold across the assay plate from well A1 to well A10. To perform this threefold titration, transfer 5 μl of the 100× test compound from well A1 to the 10 μl of 100% DMSO in well A2. Repeat for wells A2-A10. Discard the final 5 μl from well A10 so that all wells contain 10 μl. […] This completes the 10-point three-fold titration of test compound at 100× concentration. • 2.3. Transfer a 2 μl aliquot of the 100× test compound titration series from each well in row A of the 96-well assay plate (wells A1-A12) to row B (wells B1-B12). Add 48 μl of complete kinase reaction buffer to each well in row B to dilute the 100× three-fold titration series of test compound to 4× (the DMSO will also be diluted, to 4%). • 2.4. Transfer 2.5 μl of the 4× concentrated three-fold titration series of test compound from row B of the 96-well assay plates to quadruplicate wells of a 384-well assay plate. Each well in columns 21-24 should contain 2.5 μl of 4% DMSO (no compound) in complete kinase reaction buffer. This 2.5 μl addition of 4× test compound in 4% DMSO produces a 1× concentration of test compound in 1% DMSO for a 10 μl kinase reaction. • 2.5. Dispense 2.5 μl of complete kinase reaction buffer to each well in columns 23-24 of the 384-well assay plate.
• 1. Prepare 500 μl of 4 μM Z′-LYTE® Phospho-peptide by adding 2 μl of 1 mM Z′-LYTE® Phospho-peptide to 498 μl of complete kinase reaction buffer. • 2. Dispense 5 μl of the 4 μM Z′-LYTE® Phospho-peptide (2×) to each well in column 24 of the 384-well assay plate. • 3. Prepare 1000 μl of 4 μM Z′-LYTE® Peptide Substrate (2×)/2× kinase solution in complete kinase reaction buffer. If necessary, prepare an intermediate dilution of the kinase in complete kinase reaction buffer before preparing the Z′-LYTE™ Peptide Substrate (2×)/2× kinase solution. Use the appropriate 2× kinase concentration in the assay to phosphorylate 20-50% of the 0% inhibition controls at the ATP concentration desired. • 4. […]

Solubility assessment = format: physicochemical; settings: kinetic from dmso stock
Caco-2 permeability = format: in vitro ADME; settings: human
[1] = Microsomal stability, human (HLM); format: in vitro ADME
[2] = Pharmacokinetic (PK) assessment in rats; format: in vivo; settings: for Cmax / Tmax / MRT last / half-life / AUC(0-t) / AUC(0-inf): rat, plasma; for MRT last: read-out: MRT MRT last; for half-life: read-out: T ½ HL_Lambda_z (converted); for AUC(0-t): read-out: AUC0→t AUC last; for AUC(0-inf): read-out: AUC0→∞ AUC INF_obs
[3] = Microsomal stability, rat (RLM); format: in vitro ADME

Sequence of PAK1 (Q13153 whole entry): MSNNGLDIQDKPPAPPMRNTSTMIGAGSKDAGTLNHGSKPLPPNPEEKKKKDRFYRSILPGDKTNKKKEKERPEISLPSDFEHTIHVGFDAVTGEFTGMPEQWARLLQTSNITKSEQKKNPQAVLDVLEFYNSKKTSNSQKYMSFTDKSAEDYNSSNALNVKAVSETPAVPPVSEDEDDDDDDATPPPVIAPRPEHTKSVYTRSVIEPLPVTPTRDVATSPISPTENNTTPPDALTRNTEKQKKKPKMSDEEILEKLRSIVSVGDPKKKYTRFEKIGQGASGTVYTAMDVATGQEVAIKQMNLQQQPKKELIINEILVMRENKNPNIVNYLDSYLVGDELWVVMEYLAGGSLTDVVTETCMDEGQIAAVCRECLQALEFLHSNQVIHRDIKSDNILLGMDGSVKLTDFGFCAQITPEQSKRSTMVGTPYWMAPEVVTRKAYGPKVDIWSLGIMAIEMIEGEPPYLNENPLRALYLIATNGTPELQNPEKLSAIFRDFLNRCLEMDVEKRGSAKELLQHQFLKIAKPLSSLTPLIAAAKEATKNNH

With `CCn1c(=O)c(-c2ccc(-c3nc(C)c[nH]3)cc2Cl)cc2cnc(Nc3ccc(N4CCN(C)CC4)cc3)nc21` [Compound 42-0125_1] the IC50 (PAK1) was < 30 nM, the solubility (Solubility assessment; aqueous buffer, UB pH 2, 1% DMSO, read-out: Solubility in UB pH 2, 1% DMSO) was 59 µM (≈ 32.8 µg/mL) and the solubility (Solubility assessment; aqueous buffer, UB pH 7, 1% DMSO, read-out: Solubility in UB pH 7, 1% DMSO) was 25 µM (≈ 13.9 µg/mL). For the same compound, the solubility (Solubility assessment; simulated gastric fluid, SGF, 1% DMSO, read-out: Solubility in SGF, 1% DMSO) was 58 µM (≈ 32.2 µg/mL), the efflux ratio (Caco-2 permeability; Caco-2, read-out: Assym index) was 1 and the Papp A→B (Caco-2 permeability; Caco-2, A-B) was 3.9 ×10⁻⁶ cm/s. It also gave a Papp B→A (Caco-2 permeability; Caco-2, B-A) of 3.8 ×10⁻⁶ cm/s, a microsomal CLint ([1]; human, human liver microsomes, HLM) of 12 µL/min/mg and a half-life ([1]; liver microsomes, human microsomes, read-out: t½) of 1.98 h. It also gave a Cl_obs ([2]; IV, 3 mg/kg) of 4.97 mL/min/kg, a Vss_obs ([2]; IV, 3 mg/kg) of 1.705 L/kg and a Biovailability ([2]; PO 30 mg/kg versus IV 3 mg/kg) of 13.9%. It also gave a Cmax ([2]; IV, 3 mg/kg) of 3620 ng/mL, a Tmax ([2]; IV, 3 mg/kg) of 0.17 h and an MRT last ([2]; IV, 3 mg/kg) of 5 h. It also gave a half-life ([2]; IV, 3 mg/kg) of 5 h, a Cmax ([2]; PO, 30 mg/kg) of 943 ng/mL and a Tmax ([2]; PO, 30 mg/kg) of 8 h. For the same compound, the MRT last ([2]; PO, 30 mg/kg) was 10 h, the half-life ([2]; PO, 30 mg/kg) was 6.19 h and the AUC(0-t) ([2]; iv, 3 mg/kg, IV, 3 mg/kg) was 9750 ng·h/mL. The AUC(0-inf) ([2]; iv, 3 mg/kg, IV, 3 mg/kg) was 10100 ng·h/mL, the AUC(0-t) ([2]; po, 30 mg/kg, PO, 30 mg/kg) was 12600 ng·h/mL and the AUC(0-inf) ([2]; po, 30 mg/kg, PO, 30 mg/kg) was 14000 ng·h/mL. The half-life ([3]; liver microsomes, rat microsomes, read-out: t½) was 2.45 h and the microsomal CLint ([3]; rat, rat liver microsomes, RLM) was 9 µL/min/mg.
